Measurements: patent publication US5342838A, “Phenolic thioetheramides” (G. D. Searle & Co., priority 1993, dated 1994)

Tests used:
5-lipoxygenase = target: T1, 5-lipoxygenase (Rattus norvegicus, UniProt P12527); experiment: Inhibition of 5-lipoxygenase, in vitro (5-HETE synthesis, RBL-1 100,000 x g supernatant); format: biochemical; settings: RBL-1 homogenate supernatant
T1 construct: supernatant fraction of Rat Basophilic Leukemia Cell Homogenate (RBL-1) serves as a 5-lipoxygenase enzyme source; endogenous in cells; host or cells: RBL-1 (rat basophilic leukemia) cell homogenate, 100,000 x g supernatant
T1 sequence (P12527 1-673): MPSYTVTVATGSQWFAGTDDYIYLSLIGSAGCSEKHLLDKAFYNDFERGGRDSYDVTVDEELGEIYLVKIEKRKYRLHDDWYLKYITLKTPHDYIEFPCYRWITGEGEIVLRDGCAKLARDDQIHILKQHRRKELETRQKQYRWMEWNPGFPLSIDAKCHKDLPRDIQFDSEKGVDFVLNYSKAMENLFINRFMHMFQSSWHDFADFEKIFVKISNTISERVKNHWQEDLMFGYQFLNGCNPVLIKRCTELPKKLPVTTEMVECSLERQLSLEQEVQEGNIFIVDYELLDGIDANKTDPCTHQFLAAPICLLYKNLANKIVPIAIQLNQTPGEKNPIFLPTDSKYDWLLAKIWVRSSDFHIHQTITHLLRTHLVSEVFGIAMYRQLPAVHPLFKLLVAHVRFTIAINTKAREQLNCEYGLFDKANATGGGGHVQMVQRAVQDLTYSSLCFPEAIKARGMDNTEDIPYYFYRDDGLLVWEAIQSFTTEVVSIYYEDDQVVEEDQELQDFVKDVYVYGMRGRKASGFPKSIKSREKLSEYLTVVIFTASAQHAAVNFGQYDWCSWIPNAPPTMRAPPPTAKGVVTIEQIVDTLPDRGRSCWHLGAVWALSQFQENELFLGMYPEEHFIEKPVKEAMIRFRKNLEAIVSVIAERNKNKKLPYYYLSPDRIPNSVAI
Method: The compounds of the invention are evaluated with respect to 5-lipoxygenaseinhibition according to the following assay procedure.
Inhibition of 5-lipoxygenase, in vitro: anti-inflammatory, anti-allergy activities.
The 100,000 x g supernatant fraction of Rat Basophilic Leukemia Cell Homogenate (RBL-1) serves as a 5-lipoxygenase enzyme source. The enzyme is incubated with [1-^14 C)-arachidonic acid and Ca++ in the presence and absence of test compound. The product of 5-lipoxygenase, 5-hydroxyeicosatetraenoic acid (5-HETE), is separated by thin-layer chromatography and measured by radioactivity. A compound inhibiting 5-HETE synthesis by 30% or more is considered active at that concentration.

[1] = tested on: FMLP-stimulated human neutrophils (superoxide generation); experiment: Human neutrophil superoxide generation, FMLP-stimulated, cytochrome C reduction; format: cell-based; settings: for Effect on FMLP Induced Superoxide: stimulated (% > control) / activation at 50 µM: % above control; for activation at 50 µM / inhibition at 50 µM: Homo sapiens; for activation at 50 µM: stimulated at 50 μM, read-out: Effect on FMLP Induced Superoxide: stimulated (% > control); for inhibition at 50 µM: inhibited at 50 μM, read-out: Effect on FMLP Induced Superoxide: inhibited (% < control)
Method: The compounds of the invention are evaluated with respect to superoxide modulating activity according to the following assay procedure:
Human neutrophil superoxide generation:
Superoxide generation by formyl-methionyl-leucyl-phenylalanine (FMLP)-stimulated neutrophils was quantitated by the reduction of cytochrome C (Badwey, J. A., Curnutte, J. T. and Karnovsky, M. L., cis-Polyunsaturated fatty acids induce high levels of superoxide production by human neutrophils. J. Biol. Chem. 256: 12640-12643, 1981.) To 5 million neutrophils in 2.85 ml of Krebs-Ringer phosphate buffer, pH 7.2, 50 ul of inhibitor (in 10% DMSO/buffer), and 50 ul ferricytochrome C (5 mM, stock) were added and preincubated for 3 minutes at 37° C. Absorption measurements at 550 nm were recorded at start of preincubation. Fifty ul FMLP (6 μM, stock) was added to initiate reaction. A plateau was reached within 3 minutes and this reading - initial reading (before addition of FMLP) was used to calculate nanomoles of superoxide generated based on a molar extinction coefficient of 2.1×10^4 cm^-1 mole^-1.
Isolation of human neutrophils:
Human neutrophils were isolated from freshly drawn blood of healthy donors. Two ml of 5% dextran (MW 200,000-300,000) in saline was added to 10 ml aliquots of blood, mixed and placed upright for 45 min. at 37° C. Approx. 8-10 ml of the plasma-white cell suspension from the dextran sedimentation was layered on 3 ml of Ficol-paque in a 15 ml tube and centrifuged at 400 g for 30 min. The supernate, containing plasma and platelets, was discarded by aspiration, and the pellet, containing predominantly neutrophils, was resuspended in 1 ml saline. The suspension was transferred to a clean tube, and pooled with other aliquots of blood treated similarly. The pooled suspension was centrifuged at 350 g for 5 min. and supernate discarded. The pellet was resuspended in 5 ml of 0.05% NaCl with a plastic Pasteur pipette for 25 seconds to lyse contaminating red cells, then 5 ml of 1.75% NaCl added to regain isotonicity. The red cell lysing procedure was repeated, the cells suspended in appropriate buffer (depending on assay) and counted.

[2] = versus histamine; cited from earlier work

| IC50 (5-lipoxygenase) | Structure (SMILES) | Effect on FMLP Induced Superoxide: stimulated (% > control) ([1]; stimulated at 1-50 μM) | other results |
| --- | --- | --- | --- |
| 220 nM | C[C@H](Sc1cc(C(C)(C)C)c(O)c(C(C)(C)C)c1)[C@@H](C)OCC(=O)N(C)CCc1ccccn1 (relative stereo) [Example 14, (±)2S*-[2-[[3,5-bis(1,1-dimethylethyl)-4-hydroxyphenyl]thio]-1R*-methylpropoxy]-N-methyl-N-[2-(2-pyridinyl)ethyl]acetamide] | – | Effect on FMLP Induced Superoxide: inhibited (% < control) ([1]; inhibited at 25-50 μM, % below control): 57%; Effect on FMLP Induced Superoxide: stimulated (% > control) ([1]; stimulated at 1-10 μM): 171% |
| 200 nM | C[C@H](Sc1cc(C(C)(C)C)c(O)c(C(C)(C)C)c1)[C@@H](C)SCC(=O)NCc1ccncc1 (relative stereo) [Example 17, (±)2S*-[[[2-[[3,5-bis(1,1-dimethylethyl)-4-hydroxyphenyl]thio]-1R*-methylpropyl]thio]-N-(4-pyridinylmethyl)acetamide] | 60% | – |
| 460 nM | C[C@H](Sc1cc(C(C)(C)C)c(O)c(C(C)(C)C)c1)[C@@H](C)OCC(=O)N1CCN(Cc2ccccc2)CC1 (relative stereo) [Example 19, (±)1-[2-[2S*-[[3,5-bis(1,1-dimethylethyl)-4-hydroxyphenyl]thio]-1R*-methylpropoxy]-1-oxoethyl]-4-(phenylmethyl)piperazine] | 33% | – |
| 170 nM | CC(=O)c1ccc(N2CCN(C(=O)CS[C@H](C)[C@H](C)Sc3cc(C(C)(C)C)c(O)c(C(C)(C)C)c3)CC2)cc1 (relative stereo) [Example 22, (±) 1-(4-acetylphenyl)-4-[2-[[2S*-[[3,5-bis(1,1-dimethylethyl)-4-hydroxyphenyl]thio]-1R*-methylpropyl]thio]-1-oxoethyl]piperazine] | – | activation at 50 µM ([1]; Neutrophil): 17% |
| – | C[C@H](Sc1cc(C(C)(C)C)c(O)c(C(C)(C)C)c1)[C@@H](C)OCC(=O)O (relative stereo) [Formula IV, reference compound] | – | Effect on superoxide generation, in words ([1]; FMLP-stimulated human neutrophils): inhibited both superoxide generation and 5-lipoxygenase; IC50 ([1]; Neutrophil, FMLP-stimulated human neutrophils, read-out: Effect on FMLP Induced Superoxide: inhibited superoxide generation, IC50): 11000 nM |
| 160 nM | CC(C)(C)c1cc(SCCSCC(=O)NCc2ccccn2)cc(C(C)(C)C)c1O [Example 13, 2-[[2-[3,5-bis(1,1-dimethylethyl)-4-hydroxyphenyl]thiolethyl]thio]-N-(2-pyridinylmethyl)acetamide] | 171% | – |
| 130 nM | CC(C)(C)c1cc(SCCSCC(=O)NCc2cccnc2)cc(C(C)(C)C)c1O [Example 15, 2-[[2-[[3,5-bis (1,1-dimethylethyl)-4-hydroxyphenyl]thio]ethyl]thio]-N-(3-pyridinylmethyl)acetamide] | – | inhibition at 50 µM ([1]; Neutrophil, % below control): 13%; Effect on FMLP Induced Superoxide: stimulated (% > control) ([1]; stimulated at 1-10 μM): 38% |
| 160 nM | CN(CCc1ccccn1)C(=O)CCSCCSc1cc(C(C)(C)C)c(O)c(C(C)(C)C)c1 [Example 16, 3-[[2-[[3,5-bis(1,1-dimethylethyl)-4-hydroxyphenyl]thio]ethyl]thio]-N-methyl-N-[2-(2-pyridinyl)ethyl]propanamide] | 146% | inhibition at 50 µM ([1]; Neutrophil, % below control): 13% |
| 400 nM | CN1CCN(C(=O)CSCCSc2cc(C(C)(C)C)c(O)c(C(C)(C)C)c2)CC1 [Example 20, 1-[2-[[2-[[3,5-bis(1,1-dimethyethyl)-4-hydroxypheny]thio]ethyl]thio]-1-oxoethyl]-4-methylpiperazine] | – | inhibition at 50 µM ([1]; Neutrophil, % below control): 100%; Effect on FMLP Induced Superoxide: stimulated (% > control) ([1]; stimulated at 1-25 μM): 135% |
| 150 nM | CC(C)(C)c1cc(SCCSCCC(=O)N2CCC(N3CCCCC3)CC2)cc(C(C)(C)C)c1O [Example 21, 1-[3-[[2-[[3,5-bis(1,1-dimethylethyl)-4-hydroxyphenyl]thio]ethyl]thio]-1-oxopropyl]-4-(1-piperidinyl)piperidine] | – | activation at 50 µM ([1]; Neutrophil): 46% |
| – | CCCCC/C=C\C\C=C/C=C/C=C/[C@@H](SC[C@H](NC(=O)CC[C@H](N)C(=O)O)C(=O)NCC(=O)O)[C@@H](O)CCCC(=O)O [LTC4] | – | potency in causing long lasting bronchoconstricting effects relative to histamine [2]: at least 100 times |
